According to ChEMBL document CHEMBL3102748, “Structure-activity relationship studies on acremomannolipin A, the potent calcium signal modulator with a novel glycolipid structure 2: Role of the alditol side chain stereochemistry” (Bioorg Med Chem, 2014):
Activity calls are given as the source filed them. The rule behind the calls is not given here.

System: Schizosaccharomyces pombe
Test: Induction of calcium signaling pathway-mediated cell growth in ppb1-deficient Schizosaccharomyces pombe h+ leu1 ura4-D18 ppb1::ura4+ at 100 uM after 3 days by filter paper disc method in presence of MgCl2
Format: functional, organism-based

CCCCCCCC(=O)O[C@@H]1[C@H](OC[C@@H](O)[C@H](O)[C@H](O)[C@@H](O)CO)O[C@H](COC(=O)CCCCC)[C@@H](OC(=O)CCCCC)[C@@H]1OC(=O)CCCCC
Activity: Active

CCCCCCCC(=O)O[C@@H]1[C@H](OC[C@H](O)[C@@H](O)[C@H](O)[C@H](O)CO)O[C@H](COC(=O)CCCCC)[C@@H](OC(=O)CCCCC)[C@@H]1OC(=O)CCCCC
Activity: Active

CCCCCCCC(=O)O[C@@H]1[C@H](OC[C@@H](O)[C@@H](O)[C@H](O)[C@@H](O)CO)O[C@H](COC(=O)CCCCC)[C@@H](OC(=O)CCCCC)[C@@H]1OC(=O)CCCCC
Activity: Active

CCCCCCCC(=O)O[C@@H]1[C@H](OC[C@H](O)[C@@H](O)[C@@H](O)[C@H](O)CO)O[C@H](COC(=O)CCCCC)[C@@H](OC(=O)CCCCC)[C@@H]1OC(=O)CCCCC
Activity: Active

CCCCCCCC(=O)O[C@@H]1[C@H](OC[C@@H](O)[C@@H](O)[C@H](O)[C@H](O)CO)O[C@H](COC(=O)CCCCC)[C@@H](OC(=O)CCCCC)[C@@H]1OC(=O)CCCCC
Activity: Active

CCCCCCCC(=O)O[C@@H]1[C@H](OC[C@@H](O)[C@H](O)[C@@H](O)[C@@H](O)CO)O[C@H](COC(=O)CCCCC)[C@@H](OC(=O)CCCCC)[C@@H]1OC(=O)CCCCC
Activity: Active
